Tested on: Patio variety tomato seedlings
Assay: Tomato Epinasty Test
Format: in vivo
Conditions: 1000 ppm v/v OCPO in air of sealed chamber; ethylene 10 ppm v/v injected four hours later; scored sixteen hours later
Procedure: The biological activity of OCPO was assessed with the Tomato Epinasty Test. Epinasty is downward bending of leaves. The test was performed as follows. Test plants are Patio variety tomato seedlings planted two plants per three inch square plastic pot. Volatile gas treatment entailed placing two pots of Patio variety tomatoes into a polystyrene 4.8 L volume treatment chamber along with one-half (upper or lower section) of a 50×9 mm plastic Petri dish containing a Gelman filter pad. OCPO, dissolved in 1.0 ml acetone, was pipetted onto the filter pad and the chamber was immediately sealed. The amount of OCPO was calculated to give concentration of 1000 ppm v/v of OCPO in the air of the sealed chamber. Four hours later ethylene gas was injected into the sealed chamber in an amount to give concentration of ethylene of 10 ppm v/v final concentration in the sealed chamber. Sixteen hours later the chambers were opened in an exhaust hood, allowed to air, and the plants scored visually for the degree of protection against ethylene-induced epinasty conferred by the experimental compound when compared to untreated controls on a scale of 0 to 10. A rating of 10 means complete protection. A rating of 0 means no protection from the effects of ethylene.

CCCCCCCCc1cc1=O [OCPO, 1-octylcycloprop-1-en-2-one]
protection against ethylene-induced epinasty, visual rating on a scale of 0 to 10 (10 = complete protection, 0 = no protection): 7

Reference: patent publication US7741245B2, “Method for treating plants or plant parts” (Rohm and Haas Company, priority 2004, dated 2010)
